From patent US5281604A, “Angiotensin II receptor blocking 2,3,6-substituted quinazolinones” (American Cyanamid Company, priority 1993, dated 1994)
pIC50: −log10 of the molar value.

Target: T1, Angiotensin II Receptor (Bos taurus, UniProt P25104)
T1 construct: beef adrenal glands are processed as follows: fresh adrenal glands received on crushed ice are cleaned of fatty tissues; tissue Maxwell-Cohen (local slaughter house); host or cells: beef adrenal cortex, microsomal membranes (100,000×g pellet)
T1 sequence (P25104 1-359): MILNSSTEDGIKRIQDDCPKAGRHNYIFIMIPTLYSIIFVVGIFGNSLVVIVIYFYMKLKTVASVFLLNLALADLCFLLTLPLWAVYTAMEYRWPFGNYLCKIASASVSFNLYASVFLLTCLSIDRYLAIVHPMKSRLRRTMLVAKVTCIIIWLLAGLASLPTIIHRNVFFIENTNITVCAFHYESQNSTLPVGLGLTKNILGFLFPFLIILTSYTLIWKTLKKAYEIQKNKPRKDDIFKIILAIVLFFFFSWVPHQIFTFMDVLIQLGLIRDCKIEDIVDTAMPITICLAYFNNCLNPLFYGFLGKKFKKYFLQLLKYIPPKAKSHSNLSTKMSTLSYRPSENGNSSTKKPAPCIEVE
Assay: Receptor Binding Assay: displacement of [125I](Sar1,Ile8)AngII from beef adrenal cortex microsomal membranes
Settings: 60 min room temperature
Excerpt: Beef adrenals are obtained from a local slaughter house (Maxwell-Cohen).
[^125 I](Sar^1,Ile^8)AngII, S.A. 2200 Ci/mmole, is purchased from Dupont (NEN®, Boston, Mass.). All unlabeled AngII analogs, Dimethylsulfoxide (DMSO), nucleotides, bovine serum albumin (BSA) are purchased from Sigma Chemical Co., St. Louis, Mo. U.S.A.
Approximately sixteen (16) to twenty (20) beef adrenal glands are processed as follows: fresh adrenal glands received on crushed ice are cleaned of fatty tissues and the tough membranes encapsulating the glands are removed and discarded. The brownish tissue forming the adrenal cortex is scraped off and finely minced with scissors before homogenization. Care is taken to avoid contamination with medullary tissue during dissection. The scraped cortices are suspended in twenty volumes of an ice-cold buffer medium consisting of 10 mM Tris.HCl (pH 7.4 at 22° C.) and containing 1.0 mM EDTA and 0.2M sucrose. Unless otherwise indicated, all subsequent operations are done at 4° C. […] The homogenate is centrifuged first at low speed (3,000×g) for 10 min. The resulting pellet is discarded and the supernatant fluid recentrifuged at 10,000×g for 15 minutes to give a P2 pellet. This P2 pellet is discarded and the liquid phase is carefully decanted off in clean centrifuge tubes and recentrifuged at high speed (100,000×g) for 60 min. The translucent final pellet is harvested and combined in a small volume (20-50.0 ml) of 50.0 mM Tris.HCl buffer, pH 7.2. A 100 ul aliquot is withdrawn and the protein content of the preparation is determined by the Lowry's method (Lowry, O. H., Rosebrough, N. F., Farr, A. L. and Randall, R. J., Protein measurement with Folin phenol reagent. J. Biol. Chem., […], 265-275, 1951). The pelleted membrane is reconstituted in 50.0 mM Tris.HCl buffer containing 0.1 mM of phenylmethylsulfonyl fluoride (PMSF) to give approximately a protein concentration of 2.5 mg per ml of tissue suspension. The membrane preparation is finally aliquoted in 1.0 ml volumes and stored at -70° C. until use in the binding assays.
The binding of [^125 I](Sar^1.Ile^8)AngII to microsomal membranes is initiated by the addition of reconstituted membranes (1:10 vols.) in freshly made 50.0 mM Tris.HCl buffer, pH 7.4 containing 0.25% heat inactivated bovine serum albumin (BSA): 80 ul membrane protein (10 to 20 ug/assay) to wells already containing 100 ul of incubation buffer (as described above) and 20 ul [^125 I](Sar^1,Ile^8)AmgII (Specific Activity, 2200 Ci/mmole) Non-specific binding is measured in the presence of 1.0 uM unlabeled (Sar^1,Ile^8)AngII, added in 20 ul volume. Specific binding for [^125 I](Sar^1,Ile^8) AngII is greater than 90%. In competition studies, experimental compounds are diluted in dimethylsulfoxide (DMSO) and added in 20 ul to wells before the introduction of tissue membranes. This concentration of DMSO is found to have no negative effects on the binding of [^ 125I] (Sar^1,Ile^8) AngII to the membranes. Assays are performed in triplicate. The wells are left undisturbed for 60 min. at room temperature. […] Presoaking the filter sheet in 0.1% polyethyleneimine in normal saline (PEI/Saline) greatly reduces the radioactivity retained by the filter blanks. […] The filters are removed from the filter grid and counted in a Parkard® Cobra Gamma Counder for 1 min. […] The binding data are analyzed by the non-linear interactive "LUNDON-1" program (LUNDON SOFTWARE Inc., Cleveland, Ohio U.S.A.).

- pIC50: 7.43
Structure (SMILES): CCCCc1nc2ccc([C@H]3OC[C@@H]4ON5[C@@H](CCC5(C)C)[C@@H]43)cc2c(=O)n1Cc1ccc(-c2ccccc2-c2nnn[nH]2)cc1 (relative stereo) [Example 8, (3α, 3aα, 8aβ, 8bα)'-2-Butyl-6-(6,6-dimethylocta hydrofuro[3,4-d][1,2-b]isoxazol-3-yl)-3[[2'-(1H-tetrazol-5-yl)[1,1'biphenyl]-4yl]methyl]-4(3H) quinazolinone]
